SMILES strings stand for the structures. pIC50: −log10 of the molar value.

The target in one data set is T1, Amyloid-beta precursor protein (Homo sapiens, UniProt P05067). Put plainly: Inhibition of amyloid beta aggregation (unknown origin) after 4 hrs by thioflavin S assay in absence of Zn2+.
T1 sequence (P05067 whole entry): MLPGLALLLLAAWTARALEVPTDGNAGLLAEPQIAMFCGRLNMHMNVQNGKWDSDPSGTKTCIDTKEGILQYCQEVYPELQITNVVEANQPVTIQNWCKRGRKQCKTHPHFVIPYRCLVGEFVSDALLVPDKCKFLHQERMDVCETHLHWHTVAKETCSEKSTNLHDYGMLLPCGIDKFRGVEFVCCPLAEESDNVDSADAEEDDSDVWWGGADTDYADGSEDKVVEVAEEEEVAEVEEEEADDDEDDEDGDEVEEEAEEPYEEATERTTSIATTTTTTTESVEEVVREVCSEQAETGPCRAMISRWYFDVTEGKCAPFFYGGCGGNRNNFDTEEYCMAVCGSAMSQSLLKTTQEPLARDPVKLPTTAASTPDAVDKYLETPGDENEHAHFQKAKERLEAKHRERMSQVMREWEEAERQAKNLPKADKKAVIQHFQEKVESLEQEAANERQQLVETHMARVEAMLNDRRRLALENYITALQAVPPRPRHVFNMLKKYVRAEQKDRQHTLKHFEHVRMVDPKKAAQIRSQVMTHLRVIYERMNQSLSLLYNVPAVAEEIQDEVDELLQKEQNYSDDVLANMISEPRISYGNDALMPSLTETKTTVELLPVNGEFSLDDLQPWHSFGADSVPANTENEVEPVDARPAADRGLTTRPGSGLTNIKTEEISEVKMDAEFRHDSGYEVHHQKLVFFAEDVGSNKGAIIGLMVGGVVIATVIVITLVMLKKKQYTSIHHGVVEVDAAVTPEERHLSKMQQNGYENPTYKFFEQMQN
Conditions: not given
In the case of `O=C(O)CN(CCN(CC(=O)O)CC(=O)O)CC(=O)O` [EDETIC ACID], the pIC50 was 4.55.

As for `Cc1nc2cccc(/C=C/C(=O)NO)c2c(=O)n1-c1ccccc1`, the pIC50 was < 4.30.

The next data set concerns the target T1, Amyloid-beta precursor protein. Put plainly: Inhibition of amyloid beta aggregation (unknown origin) after 4 hrs by thioflavin S assay in presence of Zn2+.
Conditions: not given
In the case of `O=C(O)CN(CCN(CC(=O)O)CC(=O)O)CC(=O)O` [EDETIC ACID], the pIC50 was 5.11.

With `Cc1nc2cccc(/C=C/C(=O)NO)c2c(=O)n1-c1ccccc1`, the pIC50 was < 4.30.

The next data set is filed under the species Homo sapiens. Put plainly: Selectivity index, ratio of IC50 for human recombinant HDAC1 to IC50 for human recombinant HDAC6.
Conditions: not given
Consider `CCc1nc2cc(Cl)c(/C=C/C(=O)NO)cc2c(=O)n1CCc1ccccc1`, for which the Ratio IC50 is > 13.

For `CCc1nc2cc(/C=C/C(=O)NO)c(F)cc2c(=O)n1CCc1ccccc1`, the Ratio IC50 turned out to be 214.

As for `Cc1nc2cccc(/C=C/C(=O)NO)c2c(=O)n1-c1ccccc1`, the Ratio IC50 is 10.

The species entered for another data set is Homo sapiens. Put plainly: Selectivity index, ratio of IC50 for human recombinant HDAC8 to IC50 for human recombinant HDAC6.
Conditions: not given
For the molecule `CCc1nc2cc(Cl)c(/C=C/C(=O)NO)cc2c(=O)n1CCc1ccccc1`, the Ratio IC50 turned out to be 3.

Take `CCc1nc2cc(/C=C/C(=O)NO)c(F)cc2c(=O)n1CCc1ccccc1`: the Ratio IC50 amounted to 100.

For `Cc1nc2cccc(/C=C/C(=O)NO)c2c(=O)n1-c1ccccc1`, the Ratio IC50 is < 1.

In a further data set the target is T2, Histone deacetylase 11 (Homo sapiens, UniProt Q96DB2).
T2 sequence (Q96DB2 whole entry): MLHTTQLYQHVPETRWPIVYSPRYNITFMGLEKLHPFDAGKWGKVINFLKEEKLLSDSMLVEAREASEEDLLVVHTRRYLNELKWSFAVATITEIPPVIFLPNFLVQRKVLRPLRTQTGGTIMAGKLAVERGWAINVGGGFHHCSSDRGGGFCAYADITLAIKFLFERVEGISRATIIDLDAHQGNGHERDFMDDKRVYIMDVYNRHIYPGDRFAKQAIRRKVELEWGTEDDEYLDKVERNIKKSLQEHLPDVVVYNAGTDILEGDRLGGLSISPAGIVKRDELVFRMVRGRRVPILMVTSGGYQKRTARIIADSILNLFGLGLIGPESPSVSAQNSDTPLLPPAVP
Put plainly: Inhibition of human recombinant HDAC11 expressed in baculovirus/sf9 cells using RHKKAc as substrate.
Conditions: not given
For the molecule `CCc1nc2cc(Cl)c(/C=C/C(=O)NO)cc2c(=O)n1CCc1ccccc1`, the pIC50 was < 4.52.

As for `CCc1nc2cc(/C=C/C(=O)NO)c(F)cc2c(=O)n1CCc1ccccc1`, the pIC50 is 5.43.

On to `Cc1nc2cccc(/C=C/C(=O)NO)c2c(=O)n1-c1ccccc1`, for which the negative logarithm of the IC50 (pIC50) is < 5.00.

For another data set, the target named is T3, Protein deacetylase HDAC6 (Homo sapiens, UniProt Q9UBN7).
T3 sequence (Q9UBN7 whole entry): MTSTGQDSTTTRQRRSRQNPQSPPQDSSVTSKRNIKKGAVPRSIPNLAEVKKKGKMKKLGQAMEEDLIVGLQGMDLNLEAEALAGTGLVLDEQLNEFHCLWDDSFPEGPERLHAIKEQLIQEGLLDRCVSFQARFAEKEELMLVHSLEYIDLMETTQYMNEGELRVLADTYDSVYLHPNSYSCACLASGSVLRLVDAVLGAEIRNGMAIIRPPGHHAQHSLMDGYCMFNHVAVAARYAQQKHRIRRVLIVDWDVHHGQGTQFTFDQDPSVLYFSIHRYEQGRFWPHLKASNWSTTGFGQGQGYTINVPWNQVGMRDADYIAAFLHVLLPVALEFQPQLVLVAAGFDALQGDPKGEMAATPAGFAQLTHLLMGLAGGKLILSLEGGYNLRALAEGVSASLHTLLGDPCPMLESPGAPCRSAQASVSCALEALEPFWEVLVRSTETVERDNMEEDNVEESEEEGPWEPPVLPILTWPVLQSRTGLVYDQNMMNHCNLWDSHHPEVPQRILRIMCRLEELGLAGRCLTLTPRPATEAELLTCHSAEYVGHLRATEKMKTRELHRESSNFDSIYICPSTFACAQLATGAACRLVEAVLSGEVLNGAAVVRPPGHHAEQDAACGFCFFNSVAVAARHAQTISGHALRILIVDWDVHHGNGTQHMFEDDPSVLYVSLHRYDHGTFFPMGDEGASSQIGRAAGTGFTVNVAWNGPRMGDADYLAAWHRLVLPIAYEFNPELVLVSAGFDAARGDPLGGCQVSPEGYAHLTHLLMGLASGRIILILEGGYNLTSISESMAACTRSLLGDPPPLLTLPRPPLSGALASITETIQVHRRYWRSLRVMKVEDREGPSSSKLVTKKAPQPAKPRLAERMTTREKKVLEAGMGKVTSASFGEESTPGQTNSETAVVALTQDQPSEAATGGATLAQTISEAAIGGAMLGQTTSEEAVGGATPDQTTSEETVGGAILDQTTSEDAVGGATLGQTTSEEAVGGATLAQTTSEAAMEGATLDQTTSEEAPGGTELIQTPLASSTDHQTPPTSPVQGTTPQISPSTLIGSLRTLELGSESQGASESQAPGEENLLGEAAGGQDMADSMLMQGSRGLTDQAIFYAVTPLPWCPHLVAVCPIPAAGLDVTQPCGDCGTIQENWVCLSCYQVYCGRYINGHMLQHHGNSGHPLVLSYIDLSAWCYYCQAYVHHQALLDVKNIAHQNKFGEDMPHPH
Put plainly: Inhibition of human recombinant HDAC6 expressed in baculovirus/sf9 cells using RHKKAc as substrate.
Conditions: not given
As to `CCc1nc2cc(Cl)c(/C=C/C(=O)NO)cc2c(=O)n1CCc1ccccc1`, the pIC50 is 6.13.

In the case of `CCc1nc2cc(/C=C/C(=O)NO)c(F)cc2c(=O)n1CCc1ccccc1`, the pIC50 was 7.85.

Regarding `Cc1nc2cccc(/C=C/C(=O)NO)c2c(=O)n1-c1ccccc1`, the pIC50 is 5.72.

In another data set the target is T4, Polyamine deacetylase HDAC10 (Homo sapiens, UniProt Q969S8).
T4 sequence (Q969S8 whole entry): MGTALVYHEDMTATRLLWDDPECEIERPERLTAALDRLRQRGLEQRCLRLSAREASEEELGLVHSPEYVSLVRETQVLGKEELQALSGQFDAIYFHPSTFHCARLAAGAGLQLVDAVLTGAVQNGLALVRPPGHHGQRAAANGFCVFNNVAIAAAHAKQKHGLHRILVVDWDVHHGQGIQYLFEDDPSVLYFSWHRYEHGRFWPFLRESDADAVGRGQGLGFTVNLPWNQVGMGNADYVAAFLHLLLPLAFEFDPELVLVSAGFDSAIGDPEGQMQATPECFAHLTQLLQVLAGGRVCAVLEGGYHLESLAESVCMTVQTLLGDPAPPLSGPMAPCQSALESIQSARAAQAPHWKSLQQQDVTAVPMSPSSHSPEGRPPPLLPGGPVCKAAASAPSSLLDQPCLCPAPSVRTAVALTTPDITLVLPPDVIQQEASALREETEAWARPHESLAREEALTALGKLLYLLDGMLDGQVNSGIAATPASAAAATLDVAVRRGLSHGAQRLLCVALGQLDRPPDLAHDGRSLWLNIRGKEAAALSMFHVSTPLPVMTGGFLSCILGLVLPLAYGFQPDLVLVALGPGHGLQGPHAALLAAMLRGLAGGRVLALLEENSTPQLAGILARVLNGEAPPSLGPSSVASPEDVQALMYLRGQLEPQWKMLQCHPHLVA
Put plainly: Inhibition of human recombinant HDAC10 expressed in baculovirus/sf9 cells using RHKKAc as substrate.
Conditions: not given
Regarding `Cc1nc2cccc(/C=C/C(=O)NO)c2c(=O)n1-c1ccccc1`, the pIC50 is < 5.00.

Another data set deals with T5, Histone deacetylase 8 (Homo sapiens, UniProt Q9BY41).
T5 sequence (Q9BY41 whole entry): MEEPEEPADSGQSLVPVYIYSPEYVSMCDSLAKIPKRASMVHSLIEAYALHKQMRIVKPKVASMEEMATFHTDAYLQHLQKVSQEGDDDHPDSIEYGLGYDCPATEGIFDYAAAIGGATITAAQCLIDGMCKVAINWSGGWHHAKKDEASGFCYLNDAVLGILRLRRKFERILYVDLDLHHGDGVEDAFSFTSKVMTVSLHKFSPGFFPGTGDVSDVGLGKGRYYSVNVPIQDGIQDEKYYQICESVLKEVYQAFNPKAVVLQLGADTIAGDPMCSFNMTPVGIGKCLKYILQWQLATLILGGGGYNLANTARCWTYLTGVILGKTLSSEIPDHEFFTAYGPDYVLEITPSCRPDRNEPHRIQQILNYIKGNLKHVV
Put plainly: Inhibition of human recombinant HDAC8 expressed in baculovirus/sf9 cells using RHKAcKAc as substrate.
Conditions: not given
As to `CCc1nc2cc(Cl)c(/C=C/C(=O)NO)cc2c(=O)n1CCc1ccccc1`, the pIC50 is 5.73.

Consider `CCc1nc2cc(/C=C/C(=O)NO)c(F)cc2c(=O)n1CCc1ccccc1`, for which the pIC50 was 5.85.

Turning to `Cc1nc2cccc(/C=C/C(=O)NO)c2c(=O)n1-c1ccccc1`, the pIC50 is 5.97.

The target of another data set is Histone deacetylase 1 (Homo sapiens, UniProt Q13547). Put plainly: Inhibition of human recombinant HDAC1 expressed in baculovirus/sf9 cells using RHKKAc as substrate.
Sequence of Histone deacetylase 1 (Q13547 whole entry): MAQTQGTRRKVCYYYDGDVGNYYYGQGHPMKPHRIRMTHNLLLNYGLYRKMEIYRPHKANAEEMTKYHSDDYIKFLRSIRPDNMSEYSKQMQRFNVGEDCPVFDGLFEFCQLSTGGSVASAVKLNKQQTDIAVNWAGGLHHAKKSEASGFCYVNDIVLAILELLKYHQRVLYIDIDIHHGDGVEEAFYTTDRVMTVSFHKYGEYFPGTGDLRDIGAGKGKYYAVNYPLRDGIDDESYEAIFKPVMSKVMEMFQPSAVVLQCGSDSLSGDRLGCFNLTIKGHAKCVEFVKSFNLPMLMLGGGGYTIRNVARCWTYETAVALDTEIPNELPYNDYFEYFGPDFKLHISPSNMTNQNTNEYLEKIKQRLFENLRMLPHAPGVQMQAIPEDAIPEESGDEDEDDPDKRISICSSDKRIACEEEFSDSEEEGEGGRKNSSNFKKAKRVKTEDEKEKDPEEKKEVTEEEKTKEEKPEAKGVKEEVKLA
Conditions: not given
For `CCc1nc2cc(Cl)c(/C=C/C(=O)NO)cc2c(=O)n1CCc1ccccc1`, the pIC50 was < 5.00.

Turning to `CCc1nc2cc(/C=C/C(=O)NO)c(F)cc2c(=O)n1CCc1ccccc1`, the pIC50 is 5.52.

Turning to `Cc1nc2cccc(/C=C/C(=O)NO)c2c(=O)n1-c1ccccc1`, the pIC50 was 4.73.

For another data set, the target named is Histone deacetylase 2 (Homo sapiens, UniProt Q92769). Put plainly: Inhibition of human recombinant HDAC2 expressed in baculovirus/sf9 cells using RHKKAc as substrate.
Sequence of Histone deacetylase 2 (Q92769 whole entry): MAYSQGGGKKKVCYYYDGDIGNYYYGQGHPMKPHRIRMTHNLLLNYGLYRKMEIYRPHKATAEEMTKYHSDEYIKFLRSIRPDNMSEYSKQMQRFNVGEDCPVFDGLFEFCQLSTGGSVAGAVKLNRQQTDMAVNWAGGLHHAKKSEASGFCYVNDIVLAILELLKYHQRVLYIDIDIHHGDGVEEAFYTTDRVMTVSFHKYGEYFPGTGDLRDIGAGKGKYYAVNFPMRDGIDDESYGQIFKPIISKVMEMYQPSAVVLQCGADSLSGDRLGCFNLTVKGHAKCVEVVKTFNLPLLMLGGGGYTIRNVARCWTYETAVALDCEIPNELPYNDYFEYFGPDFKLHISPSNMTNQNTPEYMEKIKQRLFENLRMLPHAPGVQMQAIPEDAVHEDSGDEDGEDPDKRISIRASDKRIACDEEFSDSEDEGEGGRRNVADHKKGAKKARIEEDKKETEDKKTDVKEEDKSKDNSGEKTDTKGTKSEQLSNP
Conditions: not given
As for `CCc1nc2cc(Cl)c(/C=C/C(=O)NO)cc2c(=O)n1CCc1ccccc1`, the pIC50 was < 4.92.

As to `CCc1nc2cc(/C=C/C(=O)NO)c(F)cc2c(=O)n1CCc1ccccc1`, the negative-log IC50 (pIC50) is < 5.00.

Consider `Cc1nc2cccc(/C=C/C(=O)NO)c2c(=O)n1-c1ccccc1`, for which the negative-log IC50 (pIC50) was < 5.00.

The next data set concerns Vero. Put plainly: Cytotoxicity against african green monkey Vero cells at 25 uM. The data set is classed as cell-based. The following applies: chlorocebus sabaeus.
For `CCc1nc2cc(Cl)c(/C=C/C(=O)NO)cc2c(=O)n1CCc1ccccc1`, the Activity result was “Non-toxic”.

Consider `CCc1nc2cc(/C=C/C(=O)NO)c(F)cc2c(=O)n1CCc1ccccc1`, for which the Activity entry is “Non-toxic”.

As for `Cc1nc2cccc(/C=C/C(=O)NO)c2c(=O)n1-c1ccccc1`, the Activity result is “Non-toxic”.

Test system in the next data set: not listed separately
Put plainly: Cytotoxicity against human SH-SY5Y cells at 25 uM.
Conditions: not given
The data set is classed as cell-based.
For the molecule `CCc1nc2cc(Cl)c(/C=C/C(=O)NO)cc2c(=O)n1CCc1ccccc1`, the Activity entry is “Non-toxic”.

In the case of `CCc1nc2cc(/C=C/C(=O)NO)c(F)cc2c(=O)n1CCc1ccccc1`, the Activity entry is listed as “Non-toxic”.

Consider `Cc1nc2cccc(/C=C/C(=O)NO)c2c(=O)n1-c1ccccc1`, for which the Activity entry is “Non-toxic”.

The next data set relates to PC-12. Put plainly: Cytotoxicity against rat PC12 cells at 25 uM. The data set is classed as cell-based. The following applies: pc-12, 25 µM.
As for `CCc1nc2cc(Cl)c(/C=C/C(=O)NO)cc2c(=O)n1CCc1ccccc1`, the Activity entry is “Non-toxic”.

With `CCc1nc2cc(/C=C/C(=O)NO)c(F)cc2c(=O)n1CCc1ccccc1`, the Activity result is “Non-toxic”.

In the case of `Cc1nc2cccc(/C=C/C(=O)NO)c2c(=O)n1-c1ccccc1`, the Activity entry is reported as “Non-toxic”.

By pIC50 is commonly meant −log10 of the IC50, conventionally taken in molar units.

These data come from ChEMBL document CHEMBL2424579, “Quinazolin-4-one derivatives as selective histone deacetylase-6 inhibitors for the treatment of Alzheimer's disease” (J Med Chem, 2013).
